Test results: ChEMBL document CHEMBL4270626, “Synthesis and antitumor activity of epothilone B” (Eur J Med Chem, 2018)

How the values were obtained:
Hs-578T = assay: Cytotoxicity against human Hs 578T cells; assay type: functional, cell-based
HCT-116 = assay: Antiproliferative activity against human HCT116 cells assessed as inhibition of cell proliferation; assay type: functional, cell-based
KB-V1 = assay: Cytotoxicity against human KBV1 cells; assay type: functional, cell-based
HeLa = assay: Cytotoxicity against human HeLa cells; assay type: functional, cell-based
Tubulin = assay: […] in human MCF7 cells assessed as induction of mitotic arrest; assay type: cell-based
U-266 = assay: Antiproliferative activity against human U266 cells assessed as inhibition of cell proliferation; assay type: functional, cell-based
[1] = Inhibition of paclitaxel binding to microtubule (unknown origin); parameters: species or system Homo sapiens
MM1.S = assay: Antiproliferative activity against human MM1S cells assessed as inhibition of cell proliferation; assay type: functional, cell-based
RPMI-8226 = assay: Antiproliferative activity against human […] cells assessed as inhibition of cell proliferation; assay type: functional, cell-based
[2] = Inhibition of GFP-tagged alpha-tubulin (unknown origin) expressed in human MCF7 cells assessed as disruption of microtubule polymerization; assay type: cell-based
[3] = Antiproliferative activity against human 8226/LR-5 cells assessed as inhibition of cell proliferation; assay type: functional, cell-based
[4] = Antiproliferative activity against human RPMI8226/MR20 cells assessed as inhibition of cell proliferation; assay type: functional, cell-based; conditions: RPMI-8226
KB 3-1 = assay: Cytotoxicity against human KB3-1 cells; assay type: functional, cell-based

C/C(=C\c1csc(C)n1)[C@@H]1C[C@@H]2O[C@]2(C)CCC[C@H](C)[C@H](O)[C@@H](C)C(=O)C(C)(C)[C@@H](O)CC(=O)O1 [PATUPILONE]
IC50 (Hs-578T): 3 to 92 nM
IC50 (HCT-116): 0.8 nM
IC50 (KB-V1): 3 to 92 nM
IC50 (HeLa): 3 to 92 nM
IC50 (Tubulin): 3.5 nM
IC50 (U-266): 1 to 10 nM
IC50 [1]: 3.3 nM
IC50 (MM1.S): 1 to 10 nM
IC50 (RPMI-8226): 1 to 10 nM
IC50 [2]: 3.5 nM
IC50 [3]: 1 to 10 nM
IC50 [4]: 1 to 10 nM
IC50 (KB 3-1): 3 to 92 nM
